Tested on: Spontaneously hypertensive rats (SHR)
Assay: Acute Efficacy in Spontaneously Hypertensive Rats (SHR), telemetry blood pressure
Format: in vivo, rat
From the text: Acute Efficacy in Spontaneously Hypertensive Rats (SHR)
Spontaneously hypertensive rats (SHR, male, Charles River) were implanted with DSI TA11PA-C40 telemetry device (Data Sciences, Inc., St. Paul, Minn.) under isoflurane or ketamine/metomidine anesthesia. The telemetry unit catheter was inserted into the descending aorta via the femoral artery and the telemetry device was implanted subcutaneously in the left flank area. Animals were allowed to recover from surgery for 14 days before the start of any studies. Blood pressure, heart rate, and activity signals from conscious, freely moving rats were recorded continuously for 30 seconds every 10 minutes. On the day prior to administration of compound, a single oral dose of vehicle (10% transcutol/20% Cremophor/70% water) was administered to all animals to establish baseline control data. The blood pressure lowering efficacy of compound (PO) or vehicle was evaluated following a single oral gavage. Data were collected as hourly averages, and changes in blood pressure were calculated by subtracting control baseline data on an hourly basis. Animals were maintained on normal diet with a 12 hour light-dark cycle.
Maximum peak decreases of systolic blood pressure (SBP) in SHR at a particular P.O. dose (mpk milligrams per kilogram) for the following representative compounds are provided.

| Compound | Maximum SBP reduction (dose 0.3 mpk) [mmHg] | Maximum peak decrease of systolic blood pressure (SBP) in SHR, Category (single oral dose 0.3 mpk P.O.) | Maximum SBP reduction (dose 1.0 mpk) [mmHg] | Maximum peak decrease of systolic blood pressure (SBP) in SHR, Category (single oral dose 1 mpk P.O.) |
| --- | --- | --- | --- | --- |
| CC1(C(N)=O)C(=O)Nc2nc(-c3nn(CCC(F)(F)C(F)(F)F)c4cc(Cl)ccc34)nc(N)c21 (single isomer, unassigned) [Example 159, 4-Amino-2-[6-Chloro-1-(3,3,4,4,4-Pentafluorobutyl)-1H-Indazol-3-yl]-5-Methyl-6-Oxo-6,7-Dihydro-5H-Pyrrolo[2,3-D]Pyrimidine-5-Carboxamide] | 38 ± 6 | B (Category B=SBP in SHRs 25-40 mmHg) | – | – |
| CC1(C(=O)NC2CC2)C(=O)Nc2nc(-c3nn(CCC(F)(F)C(F)(F)F)c4cc(Cl)ccc34)nc(N)c21 (single isomer, unassigned) [Example 160, 4-Amino-2-[6-Chloro-1-(3,3,4,4,4-Pentafluorobutyl)-1H-Indazol-3-yl]-N-Cyclopropyl-5-Methyl-6-Oxo-6,7-Dihydro-5H-Pyrrolo[2,3-D]Pyrimidine-5-Carboxamide] | 77 ± 10 | C (Category C=SBP in SHRs>40 mmHg) | – | – |
| CC1(c2ncccn2)C(=O)Nc2nc(-c3nn(CCC(F)(F)C(F)(F)F)c4ncccc34)nc(N)c21 (single isomer, unassigned) [Example 170, 4-Amino-5-Methyl-2-[1-(3,3,4,4,4-Pentafluorobutyl)-1H-Pyrazolo[3,4-B]Pyridin-3-yl]-5-Pyrimidin-2-yl-5,7-Dihydro-6H-Pyrrolo[2,3-D]Pyrimidin-6-One] | – | – | 65 ± 13 | C (Category C=SBP in SHRs>40 mmHg) |
| CC1(c2ccccc2)C(=O)Nc2nc(-c3nc(CCC(F)(F)C(F)(F)F)c4ccccn34)nc(N)c21 (single isomer, unassigned) [Example 190, 4-Amino-5-Methyl-2-[1-(3,3,4,4,4-Pentafluorobutyl)Imidazo[1,5-A]Pyridin-3-yl]-5-Phenyl-5,7-Dihydro-6H-Pyrrolo[2,3-D]Pyrimidin-6-One] | – | B (Category B=SBP in SHRs 25-40 mmHg) | – | – |
| CC1(C(N)=O)C(=O)Nc2nc(-c3nn(CCC(F)(F)C(F)(F)F)c4ncccc34)nc(N)c21 (stereo not drawn) [Example 161, 4-Amino-5-Methyl-6-Oxo-2-[1-(3,3,4,4,4-Pentafluorobutyl)-1H-Pyrazolo[3,4-B]Pyridin-3-yl]-6,7-Dihydro-5H-Pyrrolo[2,3-D]Pyrimidine-5-Carboxamide] | – | B (Category B=SBP in SHRs 25-40 mmHg) | – | – |
| NC(=O)C1(C2CC2)C(=O)Nc2nc(-c3nn(CCC(F)(F)C(F)(F)F)c4ncccc34)nc(N)c21 (stereo not drawn) [Example 162, 4-Amino-5-Cyclopropyl-6-Oxo-2-[1-(3,3,4,4,4-Pentafluorobutyl)-1H-Pyrazolo[3,4-B]Pyridin-3-yl]-6,7-Dihydro-5H-Pyrrolo[2,3-D]Pyrimidine-5-Carboxamide] | 26 ± 7 | B (Category B=SBP in SHRs 25-40 mmHg) | – | – |
| N#CC1(C2CC2)C(=O)Nc2nc(-c3nn(CCC(F)(F)C(F)(F)F)c4ncccc34)nc(N)c21 (stereo not drawn) [Example 163, 4-Amino-5-Cyclopropyl-6-Oxo-2-[1-(3,3,4,4,4-Pentafluorobutyl)-1H-Pyrazolo[3,4-B]Pyridin-3-yl]-6,7-Dihydro-5H-Pyrrolo[2,3-D]Pyrimidine-5-Carbonitrile] | – | C (Category C=SBP in SHRs>40 mmHg) | – | – |
| CC1(C(=O)NC2CC2)C(=O)Nc2nc(-c3nn(CCC(F)(F)C(F)(F)F)c4ncccc34)nc(N)c21 (stereo not drawn) [Example 164, 4-Amino-N-Cyclopropyl-5-Methyl-6-Oxo-2-[1-(3,3,4,4,4-Pentafluorobutyl)-1H-Pyrazolo[3,4-B]Pyridin-3-yl]-6,7-Dihydro-5H-Pyrrolo[2,3-D]Pyrimidine-5-Carboxamide] | – | C (Category C=SBP in SHRs>40 mmHg) | – | – |
